According to BindingDB's records for doi:10.1039/d3md00655g (Henan University, 2024):

Experiments:
[1] = biological target: Programmed cell death 1 ligand 1 (Homo sapiens) (UniProt Q9NZQ7); assay: Inhibition of PD-1/PD-L1 (unknown origin) protein-protein interaction
[2] = biological target: Programmed cell death 1 ligand 1 (Homo sapiens) (UniProt Q9NZQ7); assay: Inhibition of PD-1/PD-L1 (unknown origin) interaction incubated for 15 mins by HTRF assay

Chain of Programmed cell death 1 ligand 1 (Homo sapiens) (Q9NZQ7 whole entry, looked up): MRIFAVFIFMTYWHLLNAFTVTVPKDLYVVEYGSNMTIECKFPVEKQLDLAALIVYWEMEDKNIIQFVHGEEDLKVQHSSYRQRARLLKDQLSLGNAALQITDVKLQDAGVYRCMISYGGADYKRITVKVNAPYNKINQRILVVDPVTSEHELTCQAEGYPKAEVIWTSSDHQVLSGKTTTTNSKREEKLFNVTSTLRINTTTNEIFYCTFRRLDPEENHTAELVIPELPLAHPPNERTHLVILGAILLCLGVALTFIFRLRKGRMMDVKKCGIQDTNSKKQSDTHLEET

Row | Compound | IC50 [1] | IC50 [2]
1 | COc1nc(-c2cccc(-c3ccccc3F)c2C)ccc1CNCCC(N)=O | 0.00093 µM | –
2 | Cc1c(COc2ccc(CN3CCNCC3)c(OCc3cn(-c4cccc(C#N)c4)nn3)c2)cccc1-c1ccccc1 | – | 8.52 µM
